Measurements taken from the supplement of paper PMC6045584.
± gives the standard deviation of the averaged measurements.

What was measured:
[1] = compound: T1, CC1(C)CC(=O)c2c(C(F)(F)F)nn(-c3ccc(C(N)=O)c(N[C@H]4CC[C@H](OC(=O)CN)CC4)c3)c2C1 [SNX-5422]; assay: area under dose-response curve of surviving fraction (unscaled, Aref=0) (surviving fraction x log10(nM)); higher = more resistant; details: exposure time: 5 days; dose range 0.5-1000 nM
Method in brief: (§1)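 Surviving fractions were fitted by 3-parameter logistic regression in the drc R package to give dose-response survival curves. They came from tumour cell lines treated for five days with eight inhibitor concentrations from 0.5 to 1000 nM and read by CellTiter-Glo luminescence against DMSO-only wells. The area under the curve is the unscaled activity area. It was calculated over log10 dose with Aref = 0.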

[2] = compound: T2, CC[C@@H]1C(=O)N(C)c2cnc(Nc3ccc(C(=O)NC4CCN(C)CC4)cc3OC)nc2N1C1CCCC1 [BI-2536]; assay: as above; details: exposure time: 5 days; dose range 0.5-1000 nM
Method in brief: as §1

[3] = compound: T3, CNC(=O)c1ccc(N2C(=S)N(c3ccc(C#N)c(C(F)(F)F)c3)C(=O)C2(C)C)cc1F [MDV3100]; assay: as above; details: exposure time: 5 days; dose range 0.5-1000 nM
Method in brief: as §1

[4] = compound: T4, Nc1nc2[nH]cnc2c(=S)[nH]1 [TIOGUANINE]; assay: as above; details: exposure time: 5 days; dose range 0.5-1000 nM
Method in brief: as §1

[5] = compound: T5, C=CC(=O)Nc1cc2c(Nc3ccc(F)c(Cl)c3)ncnc2cc1OCCCN1CCOCC1 [CANERTINIB]; assay: as above; details: exposure time: 5 days; dose range 0.5-1000 nM
Method in brief: as §1

[6] = compound: T6, CN(C)C/C=C/C(=O)Nc1cc2c(Nc3ccc(F)c(Cl)c3)ncnc2cc1O[C@H]1CCOC1 [AFATINIB]; assay: as above; details: exposure time: 5 days; dose range 0.5-1000 nM
Method in brief: as §1

[7] = compound: T7, CCCCCCCCCCCCCCCC(=O)Nc1ccn([C@@H]2O[C@H](CO)[C@@H](O)[C@@H]2C#N)c(=O)n1 [SAPACITABINE]; assay: as above; details: exposure time: 5 days; dose range 0.5-1000 nM
Method in brief: as §1

[8] = compound: T1, SNX-5422; assay: surviving fraction relative to DMSO-only wells; higher = less growth inhibition; details: exposure time: 5 days
Method in brief: (§2)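 Continuous five-day exposure to inhibitors at 0.5, 1, 5, 10, 50, 100, 500 and 1000 nM started 24 hours after log-phase tumour cell lines were seeded at 250–500 cells per well in 384-well plates. Luminescence was read after 10 minutes at room temperature. Viability is given as surviving fraction, meaning CellTiter-Glo luminescence normalised to the median of DMSO-only wells.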

[9] = compound: Cn1cc(C2=Nc3cc(NC(=O)C(N)C4CCCCC4)cc4c3C2=CNNC4=O)cn1; assay: as above; details: exposure time: 5 days
Method in brief: as §2

[10] = compound: T2, BI-2536; assay: as above; details: exposure time: 5 days
Method in brief: as §2

[11] = compound: T3, MDV3100; assay: as above; details: exposure time: 5 days
Method in brief: as §2

[12] = compound: T4, TIOGUANINE; assay: as above; details: exposure time: 5 days
Method in brief: as §2

[13] = compound: T5, CANERTINIB; assay: as above; details: exposure time: 5 days
Method in brief: as §2

[14] = compound: T6, AFATINIB; assay: as above; details: exposure time: 5 days
Method in brief: as §2

[15] = compound: T7, SAPACITABINE; assay: as above; details: exposure time: 5 days
Method in brief: as §2

Q: For H23 LUNG, which “area under dose-response curve” value [1] is on record?
A: 2.03

Q: And the “area under dose-response curve” value [2]?
A: 1.66

Q: What about the “area under dose-response curve” value [3] of the same test system?
A: 3.13

Q: And the “area under dose-response curve” value [4]?
A: 3.25

Q: And the “area under dose-response curve” value [5]?
A: 1.77

Q: What about the “area under dose-response curve” value [6] of the same test system?
A: 1.57

Q: What about the “area under dose-response curve” value [7] of the same test system?
A: 2.6

Q: What about the surviving fraction ([8]; 0.5 nM) of the same test system?
A: 1.01 ± 0.051

Q: What about the surviving fraction ([8]; 1 nM) of the same test system?
A: 1.04 ± 0.023

Q: And the surviving fraction ([8]; 5 nM)?
A: 1.06 ± 0.057

Q: And the surviving fraction ([8]; 10 nM)?
A: 1.04 ± 0.052

Q: What about the surviving fraction ([8]; 50 nM) of the same test system?
A: 0.43 ± 0.0053

Q: And the surviving fraction ([8]; 100 nM)?
A: 0.268 ± 0.013

Q: And the surviving fraction ([8]; 500 nM)?
A: 0.037 ± 0.0027

Q: And the surviving fraction ([8]; 1000 nM)?
A: 0.0373 ± 0.0035

Q: What about the surviving fraction ([9]; 0.5 nM) of the same test system?
A: 1.05 ± 0.052

Q: And the surviving fraction ([9]; 1 nM)?
A: 1.07 ± 0.092

Q: And the surviving fraction ([9]; 5 nM)?
A: 1.09 ± 0.046

Q: And the surviving fraction ([9]; 10 nM)?
A: 1.074 ± 0.0038

Q: What about the surviving fraction ([9]; 50 nM) of the same test system?
A: 1.11 ± 0.1

Q: What about the surviving fraction ([9]; 100 nM) of the same test system?
A: 1.1 ± 0.096

Q: What about the surviving fraction ([9]; 500 nM) of the same test system?
A: 1.02 ± 0.084

Q: And the surviving fraction ([9]; 1000 nM)?
A: 0.944 ± 0.031

Q: What about the surviving fraction ([10]; 0.5 nM) of the same test system?
A: 1.09 ± 0.05

Q: What about the surviving fraction ([10]; 1 nM) of the same test system?
A: 1.05 ± 0.048

Q: What about the surviving fraction ([10]; 5 nM) of the same test system?
A: 0.991 ± 0.065

Q: And the surviving fraction ([10]; 10 nM)?
A: 0.446 ± 0.016

Q: What about the surviving fraction ([10]; 50 nM) of the same test system?
A: 0.272 ± 0.015

Q: And the surviving fraction ([10]; 100 nM)?
A: 0.213 ± 0.015

Q: What about the surviving fraction ([10]; 500 nM) of the same test system?
A: 0.16 ± 0.014

Q: What about the surviving fraction ([10]; 1000 nM) of the same test system?
A: 0.142 ± 0.0076

Q: What about the surviving fraction ([11]; 0.5 nM) of the same test system?
A: 0.978 ± 0.013

Q: And the surviving fraction ([11]; 1 nM)?
A: 0.95 ± 0.0056

Q: What about the surviving fraction ([11]; 5 nM) of the same test system?
A: 0.944 ± 0.03

Q: What about the surviving fraction ([11]; 10 nM) of the same test system?
A: 0.942 ± 0.011

Q: And the surviving fraction ([11]; 50 nM)?
A: 0.954 ± 0.026

Q: What about the surviving fraction ([11]; 100 nM) of the same test system?
A: 0.9877 ± 0.0021

Q: And the surviving fraction ([11]; 500 nM)?
A: 0.93 ± 0.034

Q: And the surviving fraction ([11]; 1000 nM)?
A: 0.891 ± 0.02

Q: And the surviving fraction ([12]; 0.5 nM)?
A: 0.962 ± 0.017

Q: And the surviving fraction ([12]; 1 nM)?
A: 0.966 ± 0.044

Q: What about the surviving fraction ([12]; 5 nM) of the same test system?
A: 0.974 ± 0.024

Q: And the surviving fraction ([12]; 10 nM)?
A: 0.993 ± 0.046

Q: And the surviving fraction ([12]; 50 nM)?
A: 0.997 ± 0.058

Q: What about the surviving fraction ([12]; 100 nM) of the same test system?
A: 1.04 ± 0.03

Q: And the surviving fraction ([12]; 500 nM)?
A: 0.964 ± 0.02

Q: What about the surviving fraction ([12]; 1000 nM) of the same test system?
A: 0.966 ± 0.025

Q: What about the surviving fraction ([13]; 0.5 nM) of the same test system?
A: 0.908 ± 0.038

Q: And the surviving fraction ([13]; 1 nM)?
A: 0.86 ± 0.051

Q: And the surviving fraction ([13]; 5 nM)?
A: 0.742 ± 0.031

Q: What about the surviving fraction ([13]; 10 nM) of the same test system?
A: 0.553 ± 0.032

Q: What about the surviving fraction ([13]; 50 nM) of the same test system?
A: 0.403 ± 0.035

Q: What about the surviving fraction ([13]; 100 nM) of the same test system?
A: 0.3637 ± 0.0035

Q: What about the surviving fraction ([13]; 500 nM) of the same test system?
A: 0.29 ± 0.011

Q: And the surviving fraction ([13]; 1000 nM)?
A: 0.252 ± 0.014

Q: And the surviving fraction ([14]; 0.5 nM)?
A: 0.887 ± 0.035

Q: And the surviving fraction ([14]; 1 nM)?
A: 0.817 ± 0.048

Q: What about the surviving fraction ([14]; 5 nM) of the same test system?
A: 0.507 ± 0.024

Q: What about the surviving fraction ([14]; 10 nM) of the same test system?
A: 0.42 ± 0.015

Q: What about the surviving fraction ([14]; 50 nM) of the same test system?
A: 0.387 ± 0.018

Q: What about the surviving fraction ([14]; 100 nM) of the same test system?
A: 0.368 ± 0.029

Q: And the surviving fraction ([14]; 500 nM)?
A: 0.355 ± 0.021

Q: What about the surviving fraction ([14]; 1000 nM) of the same test system?
A: 0.288 ± 0.002

Q: What about the surviving fraction ([15]; 0.5 nM) of the same test system?
A: 0.891 ± 0.02

Q: What about the surviving fraction ([15]; 1 nM) of the same test system?
A: 0.894 ± 0.025

Q: And the surviving fraction ([15]; 5 nM)?
A: 0.916 ± 0.028

Q: What about the surviving fraction ([15]; 10 nM) of the same test system?
A: 0.924 ± 0.015

Q: And the surviving fraction ([15]; 50 nM)?
A: 0.868 ± 0.051

Q: What about the surviving fraction ([15]; 100 nM) of the same test system?
A: 0.668 ± 0.024

Q: What about the surviving fraction ([15]; 500 nM) of the same test system?
A: 0.301 ± 0.013

Q: What about the surviving fraction ([15]; 1000 nM) of the same test system?
A: 0.264 ± 0.014
